# Data as given in patent US20250276977A1, “TYK2 INHIBITORS AND USES THEREOF” (Alumis Inc., priority 2019, published 2025).
# Columns and labels:
# [1] = target: T1, human TYK2 (JH2domain-pseudokinase) (Homo sapiens, UniProt P29597); assay: TYK2 JH2 domain binding assay (KINOMEscan); settings: duplicate
# T1 construct: host or cells: transiently transfected HEK293 cells; unpurified extract
# Method: Binding constants for the compounds described herein against the JH2 domain were determined by the following protocol for a KINOMEscan® assay (DiscoveRx). A fusion protein of a partial length construct of human TYK2 (JH2domain-pseudokinase) (amino acids G556 to D888 based on reference sequence NP_003322.3) and the DNA binding domain of NFkB is expressed in transiently transfected HEK293 cells. From these HEK 293 cells, extracts are prepared in M-PER extraction buffer (Pierce) in the presence of Protease Inhibitor Cocktail Complete (Roche) and Phosphatase Inhibitor Cocktail Set II (Merck) per manufacturers' instructions. The TYK2 (JH2domain-pseudokinase) fusion protein is labeled with a chimeric double-stranded DNA tag containing the NFkB binding site fused to an amplicon for qPCR readout, which is added directly to the expression extract (the final concentration of DNA-tag in the binding reaction is 0.1 nM).
# The liganded beads are blocked with excess biotin and washed with blocking buffer (SeaBlock (Pierce), 1% BSA, 0.05% Tween 20, 1 mM DTT) to remove unbound ligand and to reduce nonspecific binding.
# Extracts are used directly in binding assays without any enzyme purification steps at a ≥10,000-fold overall stock dilution (final DNA-tagged enzyme concentration <0.1 nM). Extracts are loaded with DNA-tag and diluted into the binding reaction in a two-step process. First extracts are diluted 1:100 in 1× binding buffer (PBS/0.05% Tween 20/10 mM DTT/0.1% BSA/[…] sonicated salmon sperm DNA) containing 10 nM DNA-tag. This dilution is allowed to equilibrate at room temperature for 15 minutes and then subsequently diluted 1:100 in 1× binding buffer. Test compounds were prepared as 111×stocks in 100% DMSO. […] The compounds are then diluted directly into the assays such that the final concentration of DMSO was 0.9%. All reactions are performed in polypropylene 384-well plates. Each was a final volume of 0.02 mL.
# Assays are incubated with shaking for 1 hour at room temperature. Then the beads are pelleted and washed with wash buffer (1×PBS, 0.05% Tween 20) to remove displaced kinase and test compound. […] The kinase concentration in the eluates was measured by qPCR. qPCR reactions are assembled by adding […] of kinase eluate to […] of qPCR master mix containing […] amplicon primers and […] amplicon probe. The qPCR protocol consisted of a 10 minute hot start at 95° C., followed by 35 cycles of 95° C. for 15 seconds, 60° C. for 1 minute.
# Test compounds are prepared as 111×stocks in 100% DMSO. […] The compounds are then diluted directly into the assays such that the final concentration of DMSO was 0.9%. The Kds are determined using a compound top concentration of 30,000 nM. Kd measurements are performed in duplicate.
# Binding constants (Kds) were calculated with a standard dose-response curve using the Hill equation: […]
# The Hill Slope was set to −1. Curves were fitted using a non-linear least square fit with the Levenberg-Marquardt algorithm (Levenberg, K., A method for the solution of certain non-linear problems in least squares, Q. Appl. Math. 2, 164-168 (1944)).
# [2] = tested on: JAK2/TYK2 (IL-12 induced pSTAT4); assay: IL-12 induced pSTAT4 in human PBMC; type: cell-based; settings: IL-12 10 ng/ml
# Method: (§1) Fresh Human PBMCs were resuspended in RPMI 1640 medium with 10% FBS. Cells were seeded in a round bottom 96-well plate at the concentration of 200,000 cells/well. A 10-point dilution series of test compound (top dose 10 uM, 1:5 dilution) was added to the well using the liquid dispenser (Tecan D300e) and incubated for 1 hour at 37 C. Then human IL-12 recombinant protein (R&D Systems) was added to the well at the final concentration of 10 ng/ml and incubated for 15 minutes at 37 C. Cell lysates were prepared and analyzed by Phospho STAT4 (Tyr693) Kit (Meso Scale Discovery) following manufacturer's protocol.
# For calculation of the inhibition rate, the relative pSTAT4 signal of each well=pSTAT4 signal of each well−the average pSTAT4 signal of baseline.
# The inhibition %=(the average pSTAT4 signal of IL-12 treatment wells—the relative of pSTAT4 signal in each compound containing well)/the average pSTAT4 signal of IL-12 treatment wells*100%
# (§2) The curve was plotted as the inhibition % (y-axis) vs. compounds concentration (x-axis) and was fitted with log(inhibitor) vs. normalized response—Variable slope by GraphPad Prism7.0.
# INFα induced pSTAT3 = INFα induced pSTAT3 in human PBMC; type: cell-based; settings: INFα 5000 units/ml, read-out: p-STAT3 IC50
# Method: as §1, with “INFα” for “IL-12”, “5000 units/ml” for “10 ng/ml”, “STAT3 (Tyr705) cellular kit (Cisbio) or Phospho STAT5” for “STAT4”
# (§3) For calculation of the inhibition rate, the relative pSTAT signal of each well=pSTAT signal of each well−the average pSTAT signal of baseline.
# (§4) The inhibition %=(the average pSTAT signal of INFα treatment wells—the relative of pSTAT signal in each compound containing well)/the average pSTAT signal of INFα treatment wells * 100%
# as §2
# INFα induced pSTAT5 = INFα induced pSTAT5 in human PBMC; type: cell-based; settings: Homo sapiens, PBMC, INFα 5000 units/ml, read-out: p-STAT5 IC50
# Method: as §1, with “INFα” for “IL-12”, “5000 units/ml” for “10 ng/ml”, “STAT3 (Tyr705) cellular kit (Cisbio) or Phospho STAT5” for “STAT4”
# as §3, §4, §2
# [3] = Pharmacokinetic studies in Sprague Dawley rats; type: in vivo; settings: rat, plasma, male Sprague Dawley rats
# Method: The pharmacokinetics of test compounds were evaluated in male Sprague Dawley rats when administered via oral gavage and IV injection. The test compound was suspended in 0.5% methylcellulose for oral gavage and dissolved in 5% DMSO/5% Solutol/90% saline for IV injection. The animals were fasted overnight before administration. Plasma samples were collected predose and at 0.5, 1, 3, 6, 9, 12, and 24 hours postdose. The samples were analyzed by LC/MS/MS and the concentration of test compound at each timepoint was determined by linear regression. Pharmacokinetic parameters were calculated from the plasma concentrations using Pheonix WinNonlin.
# IL-2-induced pSTAT5 = IL-2-induced pSTAT5 in human PBMC; type: cell-based; settings: 20 ng/ml of IL-2
# Method: (§5) Similar to the method for INFα induced pSTAT5 in human PBMC described above, these assays were performed to check if test compounds have cross-activity to JAK1. JAK2 and JAK3 pathways in human PBMC. The procedure is as described with change of stimuli to 10 ng/ml of GM-CSF or 20 ng/ml of IL-2.
# JAK1 (JH2 domain) = target: T2, JAK1 (JH2 domain) (Homo sapiens, UniProt P23458); assay: JAK1 JH2 domain binding assay (KINOMEscan)
# T2 construct: inferred from 'similar to the method' for TYK2 JH2; DiscoverX (KINOMEscan)
# JAK2 (JH1 domain) = target: T3, JAK2 (JH1 domain) (Homo sapiens, UniProt O60674); assay: JAK2 JH1 domain binding assay (KINOMEscan)
# T3 construct: inferred from 'similar to the method' for TYK2 JH2; DiscoverX (KINOMEscan)
# GM-CSF-induced pSTAT5 = GM-CSF-induced pSTAT5 in human PBMC; type: cell-based; settings: 10 ng/ml of GM-CSF
# Method: as §5
# T1 sequence (P29597 556-888): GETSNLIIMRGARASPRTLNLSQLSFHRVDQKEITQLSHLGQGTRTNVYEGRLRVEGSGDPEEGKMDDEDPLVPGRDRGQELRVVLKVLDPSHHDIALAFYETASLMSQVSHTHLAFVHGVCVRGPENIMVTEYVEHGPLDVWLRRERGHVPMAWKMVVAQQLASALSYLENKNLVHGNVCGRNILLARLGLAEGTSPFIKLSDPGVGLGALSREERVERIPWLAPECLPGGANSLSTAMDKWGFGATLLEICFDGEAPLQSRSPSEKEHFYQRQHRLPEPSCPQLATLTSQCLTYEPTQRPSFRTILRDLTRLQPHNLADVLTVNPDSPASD
# T2 sequence (P23458 583-855 limits assumed): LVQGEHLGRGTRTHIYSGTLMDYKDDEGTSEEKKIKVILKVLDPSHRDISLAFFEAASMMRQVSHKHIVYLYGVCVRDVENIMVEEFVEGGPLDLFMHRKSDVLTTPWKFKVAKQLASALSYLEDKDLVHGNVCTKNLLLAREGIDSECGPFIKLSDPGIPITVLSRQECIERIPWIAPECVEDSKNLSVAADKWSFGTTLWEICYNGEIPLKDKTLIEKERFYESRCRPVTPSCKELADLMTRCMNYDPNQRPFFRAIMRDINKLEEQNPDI
# T3 sequence (O60674 849-1124 limits assumed): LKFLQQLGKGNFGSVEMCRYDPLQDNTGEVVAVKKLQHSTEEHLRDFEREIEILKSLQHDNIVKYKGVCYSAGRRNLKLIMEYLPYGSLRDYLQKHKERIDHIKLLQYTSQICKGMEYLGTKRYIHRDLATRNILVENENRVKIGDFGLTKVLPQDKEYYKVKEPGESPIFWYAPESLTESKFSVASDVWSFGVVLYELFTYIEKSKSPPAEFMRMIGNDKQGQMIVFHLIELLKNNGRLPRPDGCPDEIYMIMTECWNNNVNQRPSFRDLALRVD
Kd [1],IC50 [2],IC50 (INFα induced pSTAT5),IC50 (IL-2-induced pSTAT5),SMILES,also measured
0.38 nM,16.1 nM,–,–,CNc1cc2nn3c(cnc13)C(=O)NCCCOc1ccc(OC)c(c1)N2 [Example 4],–
0.071 nM,–,26.2 nM,–,CNc1cc2nn3c(cnc13)C(=O)NCCOCc1ccc(OC)c(c1)N2 [Example 6],–
0.0071 nM,–,2.3 nM,–,CNc1cc2nn3c(cnc13)C(=O)NC(C)COCc1ccc(OC)c(c1)N2 (centres unmarked) [Example 7],"AUC ([3]; iv, I.V. (1 mg/kg)): 318 ± 30 ng·h/mL; C0 ([3]; iv, I.V. (1 mg/kg)): 1230 ± 153 ng/mL; clearance ([3]; iv, I.V. (1 mg/kg)): 52.4 ± 5.3 mL/min/kg; half-life ([3]; iv, I.V. (1 mg/kg)): 18 ± 0.96 min; Vd ([3]; iv, I.V. (1 mg/kg), read-out: Vdss): 0.956 ± 0.1 L/kg; AUC ([3]; Oral (5 mg/kg)): 84.9 ± 36 ng·h/mL; Cmax ([3]; Oral (5 mg/kg)): 18.2 ± 3.1 ng/mL; Tmax ([3]; Oral (5 mg/kg)): 40 ± 17.4 min; bioavailability ([3]; Oral (5 mg/kg)): 5.34 ± 2.3%; half-life ([3]; Oral (5 mg/kg)): 238 ± 66 min"
0.0023 nM,–,1.2 nM,> 10000 nM,CNc1cc2nc3c(cnn13)C(=O)N[C@H](C)COCc1ccc(C(F)(F)F)c(c1)N2 [Example 10],Kd (JAK1 (JH2 domain)): 430 nM; Kd (JAK2 (JH1 domain)): 7300 nM
–,–,8.7 nM,38500 nM,"CNc1cc2nn3c(cnc13)C(=O)N[C@H](C)COCc1cc(c(OC)c(F)c1F)N2 [Example 19, (7R,E)-3^4,3^5-difluoro-3^6-methoxy-7-methyl-1^8-(methylamino)-5-oxa-2,8-diaza-1(6,3)-imidazo[1,2-b]pyridazina-3(1,3)-benzenacyclononaphan-9-one]",–
–,–,0.5 nM,9390 nM,CNc1cc2nn3c(cnc13)C(=O)N[C@H](C)COCc1cc(c3nn(C)cc3c1)N2 [Example 24],–

# More lines, now with the values behind:
SMILES,Kd [1],IC50 [2],IC50 (INFα induced pSTAT5),IC50 (IL-2-induced pSTAT5),also measured
CNc1cc2nc3c(cnn13)C(=O)NCCOCc1cnc(OC)c(c1)N2 [Example 1],0.24 nM,281 nM,–,–,IC50 (INFα induced pSTAT3): 87.5 nM
CNc1cc2nc3c(cnn13)C(=O)NCCOCc1ccc(OC)c(c1)N2 [Example 2],0.14 nM,12.2 nM,–,–,–
CNc1cc2nc3c(cnn13)C(=O)NCCCOc1ccc(OC)c(c1)N2 [Example 3],0.96 nM,1150 nM,–,–,IC50 (INFα induced pSTAT3): 1460 nM
"[2H]C([2H])([2H])NC(=O)c1nnc(NC(=O)C2CC2)cc1Nc1cccc(-c2ncn(C)n2)c1OC [control, BMS-986165, reference compound]",–,–,–,442 nM,IC50 (GM-CSF-induced pSTAT5): 1310 nM
